The test system of experiment [1] is M. tuberculosis strains with Aspartic acid 516 changed into Valine or Tyrosine. It is filed as cell-based.
Another experiment deals with M. tuberculosis. The experiment in a line: microbe, parasite or virus in culture. The following applies: Mycobacterium tuberculosis, read-out: MIC (Minimal Inhibitory Concentration). It is filed as cell-based.

The structures appear in SMILES notation.

In the case of `CO[C@H]1/C=C/O[C@@]2(C)Oc3c(C)c(O)c4c(c3C2=O)C2=NC3(CCN(CC(C)C)CC3)NC2=C(NC(=O)/C(C)=C\C=C\[C@H](C)[C@H](O)[C@@H](C)[C@@H](O)[C@@H](C)[C@H](OC(C)=O)[C@@H]1C)C4=O` [rifabutin], in experiment [1], the “Resistance or sensitivity of strains with the mutation” value is given as “sensitivity to rifabutin is maintained”.

For `CO[C@H]1/C=C/O[C@@]2(C)Oc3c(C)c(O)c4c(O)c(c(/C=N/N5CCN(C)CC5)c(O)c4c3C2=O)NC(=O)/C(C)=C\C=C\[C@H](C)[C@H](O)[C@@H](C)[C@@H](O)[C@@H](C)[C@H](OC(C)=O)[C@@H]1C` [rifampicin], the MIC in the experiment with M. tuberculosis is greater than 2 µg/mL.
